For 20 molecules, IC50, melting point and inhibition results are on record in US6458781B1, “Substituted diarylalkyl amides as calcium channel antagonists” (priority 1998, dated 2002).

Series [1] has as its target T1, L-type calcium channels in A10 cells (Rattus norvegicus, UniProt P22002).
T1 construct: which endogenously expresses L-type calcium channels; host or cells: A10 rat embryonic thoracic aorta smooth muscle cells
Nature of the series: L-type Ca2+ channel blocking potency in A10 cells (FLIPR). In kind it is cell-based. To be noted: read-out: FLPA10 IC50. The method, boiled down:
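Rat A10 aortic smooth-muscle cells endogenously expressing L-type channels were loaded with Oregon Green BAPTA-1 and preincubated with compound for 5 min at 35 °C. Cells were then depolarized with 140 mM KCl buffer. Summed fluorescence above basal over 120 s gave % inhibition versus buffer-treated stimulated wells, with zero influx defined by 1.0×10^−6 M nitrendipine.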

Series [2] deals with T2, N-type calcium channels in IMR-32 cells (Homo sapiens, UniProt Q00975).
T2 construct: host or cells: IMR-32 cells differentiated with dibutyryl cAMP and bromodeoxyuridine
The series can be described thus: N-type Ca2+ channel blocking potency in IMR-32 cells using Indo-1. The class given is cell-based. Conditions: for IC50: IMR-32 cells; for inhibition at 1 µM / inhibition at 10 µM: IMR-32, IMR-32 cells; for inhibition at 1 µM: read-out: IMR32 % blockage at 1 μM; for inhibition at 10 µM: read-out: IMR32 % blockage at 10 μM. The gist of the method:
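Differentiated IMR-32 cells loaded with Indo-1 AM were preincubated with compound and 5 μM nitrendipine (L-type block) for 10 min at 30° C in HEPES/Tris pH 7.4 HBSS with 0.5% BSA. Cells were depolarized with KCl/CaCl2, and the 400/490 nm emission ratio rise over basal was measured. IC50 came from a four-parameter logistic fit.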

Setting [3] is: estimated from two data points, read-out: IMR32 IC50 (estimated IC50 values based on two data points).

The structures appear in SMILES notation. Where two headings read alike, the source gives them in different places. Some results are limits rather than exact numbers.

T2 sequence (Q00975 whole entry): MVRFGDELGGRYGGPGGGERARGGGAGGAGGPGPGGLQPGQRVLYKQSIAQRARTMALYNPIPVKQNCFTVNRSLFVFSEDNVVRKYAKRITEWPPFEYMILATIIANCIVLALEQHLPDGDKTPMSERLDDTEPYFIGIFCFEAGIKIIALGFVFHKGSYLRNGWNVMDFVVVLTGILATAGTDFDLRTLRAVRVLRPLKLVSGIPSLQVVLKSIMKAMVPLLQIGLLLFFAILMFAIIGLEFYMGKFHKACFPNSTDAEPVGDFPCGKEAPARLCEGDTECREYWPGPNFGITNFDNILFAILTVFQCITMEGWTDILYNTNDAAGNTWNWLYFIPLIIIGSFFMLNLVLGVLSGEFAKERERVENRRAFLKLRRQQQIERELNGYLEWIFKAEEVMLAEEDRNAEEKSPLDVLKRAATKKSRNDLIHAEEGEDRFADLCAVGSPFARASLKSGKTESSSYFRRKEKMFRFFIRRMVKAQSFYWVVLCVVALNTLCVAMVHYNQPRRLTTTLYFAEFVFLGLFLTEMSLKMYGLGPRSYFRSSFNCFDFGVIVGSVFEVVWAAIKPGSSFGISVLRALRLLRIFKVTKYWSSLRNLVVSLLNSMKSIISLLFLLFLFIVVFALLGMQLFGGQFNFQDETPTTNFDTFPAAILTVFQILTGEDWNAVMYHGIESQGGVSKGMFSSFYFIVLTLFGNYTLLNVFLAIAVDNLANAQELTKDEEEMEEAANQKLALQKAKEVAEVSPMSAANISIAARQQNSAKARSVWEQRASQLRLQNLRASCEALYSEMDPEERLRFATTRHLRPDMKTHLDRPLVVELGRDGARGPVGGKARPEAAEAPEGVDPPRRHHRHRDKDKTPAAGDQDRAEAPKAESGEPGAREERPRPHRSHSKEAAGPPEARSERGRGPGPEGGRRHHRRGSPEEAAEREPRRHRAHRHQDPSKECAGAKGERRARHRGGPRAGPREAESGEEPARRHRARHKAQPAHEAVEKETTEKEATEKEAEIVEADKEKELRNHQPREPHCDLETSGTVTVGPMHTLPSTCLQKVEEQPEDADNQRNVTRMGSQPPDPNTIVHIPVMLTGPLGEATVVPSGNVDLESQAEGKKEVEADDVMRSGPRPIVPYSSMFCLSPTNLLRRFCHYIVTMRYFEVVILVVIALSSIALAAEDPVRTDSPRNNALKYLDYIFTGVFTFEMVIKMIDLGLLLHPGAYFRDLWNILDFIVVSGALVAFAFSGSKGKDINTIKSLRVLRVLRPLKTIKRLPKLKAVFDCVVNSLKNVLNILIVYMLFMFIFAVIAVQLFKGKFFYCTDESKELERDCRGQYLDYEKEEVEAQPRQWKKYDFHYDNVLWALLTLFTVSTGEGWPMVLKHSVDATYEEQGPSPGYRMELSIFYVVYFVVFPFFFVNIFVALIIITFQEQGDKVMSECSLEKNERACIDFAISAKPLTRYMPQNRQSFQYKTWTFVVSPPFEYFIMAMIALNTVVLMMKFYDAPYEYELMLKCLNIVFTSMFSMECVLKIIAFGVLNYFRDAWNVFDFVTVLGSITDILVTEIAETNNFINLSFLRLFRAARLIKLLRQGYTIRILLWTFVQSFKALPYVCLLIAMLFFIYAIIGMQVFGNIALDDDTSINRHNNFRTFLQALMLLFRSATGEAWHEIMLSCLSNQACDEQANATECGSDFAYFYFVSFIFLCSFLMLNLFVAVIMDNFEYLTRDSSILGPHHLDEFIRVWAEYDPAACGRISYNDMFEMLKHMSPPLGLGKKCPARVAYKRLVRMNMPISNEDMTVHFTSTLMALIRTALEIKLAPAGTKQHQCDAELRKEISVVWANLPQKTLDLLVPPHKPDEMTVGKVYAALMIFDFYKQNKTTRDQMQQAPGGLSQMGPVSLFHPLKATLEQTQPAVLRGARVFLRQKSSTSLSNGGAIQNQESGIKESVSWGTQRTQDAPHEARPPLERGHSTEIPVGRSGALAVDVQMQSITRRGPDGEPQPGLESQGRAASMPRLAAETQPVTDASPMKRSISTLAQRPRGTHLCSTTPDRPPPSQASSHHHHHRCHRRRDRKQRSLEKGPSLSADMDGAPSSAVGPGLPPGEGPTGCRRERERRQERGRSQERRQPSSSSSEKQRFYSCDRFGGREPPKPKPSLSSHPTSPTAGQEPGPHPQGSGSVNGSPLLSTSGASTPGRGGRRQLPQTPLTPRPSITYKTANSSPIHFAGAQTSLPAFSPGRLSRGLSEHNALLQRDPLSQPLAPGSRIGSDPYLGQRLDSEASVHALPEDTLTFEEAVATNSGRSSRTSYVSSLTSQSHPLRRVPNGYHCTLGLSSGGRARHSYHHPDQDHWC
T2 sequence (P54289 25-956 partner limits assumed): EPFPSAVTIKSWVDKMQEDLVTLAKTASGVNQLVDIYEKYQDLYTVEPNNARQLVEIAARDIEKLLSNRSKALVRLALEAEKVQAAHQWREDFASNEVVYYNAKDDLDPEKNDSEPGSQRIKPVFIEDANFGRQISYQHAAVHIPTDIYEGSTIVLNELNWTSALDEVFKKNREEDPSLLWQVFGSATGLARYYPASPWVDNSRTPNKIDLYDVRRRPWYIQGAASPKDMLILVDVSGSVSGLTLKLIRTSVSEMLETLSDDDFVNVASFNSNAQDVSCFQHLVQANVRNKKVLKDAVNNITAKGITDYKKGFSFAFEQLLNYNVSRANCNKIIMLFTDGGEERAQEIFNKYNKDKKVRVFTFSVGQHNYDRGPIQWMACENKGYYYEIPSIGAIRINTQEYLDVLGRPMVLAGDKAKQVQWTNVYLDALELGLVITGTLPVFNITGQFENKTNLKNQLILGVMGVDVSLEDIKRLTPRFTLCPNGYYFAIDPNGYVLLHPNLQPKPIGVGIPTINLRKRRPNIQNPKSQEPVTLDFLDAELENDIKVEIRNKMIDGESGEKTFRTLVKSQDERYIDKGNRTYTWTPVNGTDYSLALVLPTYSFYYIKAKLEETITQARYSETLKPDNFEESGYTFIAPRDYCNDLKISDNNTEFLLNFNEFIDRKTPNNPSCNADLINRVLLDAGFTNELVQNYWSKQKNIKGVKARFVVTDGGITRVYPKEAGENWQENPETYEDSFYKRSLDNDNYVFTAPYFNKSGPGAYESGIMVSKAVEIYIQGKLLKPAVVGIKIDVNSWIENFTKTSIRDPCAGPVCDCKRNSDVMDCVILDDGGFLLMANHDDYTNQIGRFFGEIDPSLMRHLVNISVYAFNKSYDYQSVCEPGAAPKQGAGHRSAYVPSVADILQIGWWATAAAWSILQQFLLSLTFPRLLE
T2 sequence (P54289 957-1103 partner limits assumed): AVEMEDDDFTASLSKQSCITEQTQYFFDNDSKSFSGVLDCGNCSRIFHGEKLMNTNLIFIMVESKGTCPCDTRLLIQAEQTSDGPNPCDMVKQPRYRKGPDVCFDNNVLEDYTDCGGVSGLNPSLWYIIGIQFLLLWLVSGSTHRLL
T2 sequence (Q02641 whole entry partner): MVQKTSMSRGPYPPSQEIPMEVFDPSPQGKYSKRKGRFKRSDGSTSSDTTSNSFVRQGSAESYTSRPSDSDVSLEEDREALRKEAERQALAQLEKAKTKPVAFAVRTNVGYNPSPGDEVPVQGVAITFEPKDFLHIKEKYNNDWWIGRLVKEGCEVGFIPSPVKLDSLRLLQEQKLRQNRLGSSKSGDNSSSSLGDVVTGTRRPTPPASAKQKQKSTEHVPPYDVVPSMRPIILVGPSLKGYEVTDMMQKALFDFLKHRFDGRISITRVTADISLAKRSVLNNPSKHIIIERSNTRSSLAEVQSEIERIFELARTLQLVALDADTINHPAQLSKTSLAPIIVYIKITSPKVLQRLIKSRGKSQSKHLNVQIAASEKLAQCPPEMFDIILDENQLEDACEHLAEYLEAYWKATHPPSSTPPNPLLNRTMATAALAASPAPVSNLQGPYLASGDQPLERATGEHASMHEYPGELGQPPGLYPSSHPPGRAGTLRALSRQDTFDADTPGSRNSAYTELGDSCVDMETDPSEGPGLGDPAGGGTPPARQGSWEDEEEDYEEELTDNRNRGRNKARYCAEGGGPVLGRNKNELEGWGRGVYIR

Usually IC50 stands for the concentration that inhibits the measured activity by half. As a reminder, the melting point is the temperature of the solid-liquid transition. For `CC(C)[C@H](NC(=O)N1CCCCCC1)C(=O)NCCCC(c1ccc(F)cc1)c1ccc(F)cc1` [Example 26, (S)-Azepane-1-carboxylic acid {1-[4,4-bis-(4-fluoro-phenyl)-butylcarbamoyl]-2-methyl-propyl}-amide], the melting point was 32 to 50 °C. Also, in series [1], the IC50 is 240 nM. Besides, the IC50 in series [2] (setting [3]) was 840 nM.

For the molecule `CC(C)C[C@H](NC(=O)N1CCN(C)CC1)C(=O)NCCCC(c1ccc(F)cc1)c1ccc(F)cc1` [Example 29, (S)-4-Methyl-piperazine-1-carboxylic acid {1-[4,4-bis-(4-fluoro-phenyl)-butylcarbamoyl]-3-methyl-butyl)-amide], the melting point was 73 to 91 °C. The IC50 in series [1] amounted to 1200 nM. For the same molecule, in series [2], the inhibition at 1 µM stood at 22% and the inhibition at 10 µM came out at 82%.

Take `C[C@H](NC(=O)N1CCCCCC1)C(=O)NCCCC(c1ccc(F)cc1)c1ccc(F)cc1` [Example 30, (S)-Azepane-1-carboxylic acid {1-[4,4-bis-(4-fluoro-phenyl)-butylcarbamoyl]-ethyl}-amide]: the melting point fell in the range of 29 to 49 °C. Besides, the IC50 in series [1] was 1300 nM. For the same molecule, in series [2], the inhibition at 1 µM worked out at 39% and the inhibition at 10 µM was 100%.

`O=C(CNC(=O)N1CCCCCC1)N1CCN(C(c2ccc(F)cc2)c2ccc(F)cc2)CC1` [Example 32, (S)-Azepane-1-carboxylic acid (2-{4-[bis-(4-fluoro-phenyl)-methyl]-piperazin-1-yl}-2-oxo-ethyl)-amide] gave a melting point of 66 to 86 °C. In series [1], the IC50 stood at 1800 nM. The IC50 in series [2] (5 μM nitrendipine present, read-out: IMR32 IC50) turned out to be 470 nM.

`CC(C)C[C@@H](C(=O)N1CCN(C(c2ccc(F)cc2)c2ccc(F)cc2)CC1)N(C)C1CCOCC1` [Example 41, (S)-1-{4-[Bis-(4-fluoro-phenyl)-methyl]-piperazin-1-yl}-4-methyl-2-[methyl-(tetrahydro-pyran-4-yl)-amino]-pentan-1-one] registered a melting point of 56 to 65 °C. Also, in series [1], the IC50 was 780 nM. The IC50 in series [2] (setting [3]) is 2300 nM.

`CC(C)C[C@@H](C(=O)N1CCN(C(c2ccc(F)cc2)c2ccc(F)cc2)CC1)N1CCOCC1` [Example 42, (S)-1-{4-[Bis-(4-fluoro-phenyl)-methyl]-piperazin-1-yl}-4-methyl-2-morpholin-4-yl-pentan-1-one] came in with a melting point of 55 to 63 °C. The IC50 in series [1] was 2000 nM. The IC50 in series [2] (setting [3]) was 3400 nM.

`CCC(C)[C@H](NC(=O)N1CCCCCC1)C(=O)N1CCN(C(c2ccc(F)cc2)c2ccc(F)cc2)CC1` (stereo partly drawn) [Example 43, (S)-Azepane-1-carboxylic acid (1-{4-[bis-(4-fluoro-phenyl)-methyl]-piperazine-1-carbonyl}-2-methyl-butyl)-amide]: the melting point was 64 to 77 °C. Further, in series [1], the IC50 came to 440 nM. Besides, the IC50 in series [2] (setting [3]) was 470 nM.

Turning to `CC(C)C[C@H](NC(=O)N1CCN(c2ccccc2)CC1)C(=O)N1CCN(C(c2ccc(F)cc2)c2ccc(F)cc2)CC1` [Example 44, (S)-4-Phenyl-piperazine-1-carboxylic acid (1-{4-[bis-(4-fluoro-phenyl)-methyl]-piperazine-1-carbonyl}-3-methyl-butyl)-amide], the melting point lay within 83 to 91 °C. Also, the IC50 in series [1] turned out to be 300 nM. In series [2] (setting [3]), the IC50 is 410 nM.

Molecule `CC(C)C[C@H](NC(=O)N1CCCCCC1)C(=O)N1CCN(C2c3ccccc3-c3ccccc32)CC1` [Example 45, (S)-Azepane-1-carboxylic acid {1-[4-(9H-fluoren-9-yl)-piperazine-1-carbonyl]-3-methyl-butyl}-amide] gave a melting point of 63 to 73 °C. Also, in series [1], the IC50 was 930 nM. Further, in series [2] (setting [3]), the half-inhibitory concentration (IC50) is 1500 nM.

With `CC(C)C[C@H](NC(=O)N1CCCCCC1)C(=O)N1CCN(C(c2ccccc2)c2ccccc2)CC1` [Example 48, (S)-Azepane-1-carboxylic acid [1-(4-benzhydryl-piperazine-1-carbonyl)-3-methyl-butyl]-amide], the melting point lay within 66 to 74 °C. The IC50 in series [1] amounted to 1700 nM. Moreover, the IC50 in series [2] (setting [3]) is 1200 nM.

`CC(C)C[C@H](NC(=O)OC(C)(C)C)C(=O)N1CCN(C(c2ccc(F)cc2)c2ccc(F)cc2)CC1` [Example 50, (S)-(1-{4-[Bis-(4-fluoro-phenyl)-methyl]-piperazine-1-carbonyl}-3-methyl-butyl)-carbamic acid tert-butyl ester] had a melting point of 59 to 66 °C. Also, the IC50 in series [1] was 950 nM. Also, the IC50 in series [2] (setting [3]) is 550 nM.

In the case of `CC(C)(C)OC(=O)N[C@@H](Cc1ccccc1)C(=O)N1CCN(C(c2ccc(F)cc2)c2ccc(F)cc2)CC1` [Example 51, (S)-(1-Benzyl-2-{4-[bis-(4-fluoro-phenyl)-methyl]-piperazin-1-yl}-2-oxo-ethyl)-carbamic acid tert-butyl ester], the melting point was in the range of 54 to 74 °C. Besides, the IC50 in series [1] worked out at 710 nM. Also, the IC50 in series [2] (setting [3]) is 250 nM.

In the case of `CC(C)C[C@H](N)C(=O)N1CCN(C(c2ccc(F)cc2)c2ccc(F)cc2)CC1` [Example 53, (S)-2-Amino-1-{4-[bis-(4-fluoro-phenyl)-methyl]-piperazin-1-yl}-4-methyl-pentan-1-one], the melting point was in the range of 61 to 68 °C. The IC50 in series [1] stood at 420 nM. Further, in series [2], the inhibition at 1 µM is 22% and the inhibition at 10 µM was found to be 78%.

On to `CC(C)N[C@@H](Cc1ccccc1)C(=O)N1CCN(C(c2ccc(F)cc2)c2ccc(F)cc2)CC1` [Example 54, (S)-1-{4-[Bis-(4-fluoro-phenyl)-methyl]-piperazin-1-yl}-2-isopropylamino-3-phenyl-propan-1-one], for which the melting point lay in the range of 45 to 58 °C. For the same molecule, in series [1], the IC50 amounted to 1300 nM. For the same molecule, in series [2], the inhibition at 1 µM was 25% and the inhibition at 10 µM turned out to be 99%.

Regarding `CC(C)CCN[C@@H](Cc1ccccc1)C(=O)N1CCN(C(c2ccc(F)cc2)c2ccc(F)cc2)CC1.Cl` [Example 55, (S)-1-{4-[Bis-(4-fluoro-phenyl)-methyl]-piperazin-1-yl}-2-(3-methyl-butylamino)-3-phenyl-propan-1-one dihydrochloride], the melting point was in the range of 172 to 186 °C. In series [1], the IC50 worked out at 940 nM. Moreover, the inhibition at 10 µM in series [2] came to 104%.

The molecule `CC(C)CCN(CCC(C)C)[C@@H](Cc1ccccc1)C(=O)N1CCN(C(c2ccc(F)cc2)c2ccc(F)cc2)CC1.Cl` [Example 56, (S)-1-{4-[Bis-(4-fluoro-phenyl)-methyl]-piperazin-1-yl}-2-[bis-(3-methyl-butyl)-amino]-3-phenyl-propan-1-one dihydrochloride] displayed a melting point of 139 to 181 °C. For the same molecule, the IC50 in series [1] is greater than 3000 nM. Moreover, in series [2], the inhibition at 1 µM turned out to be 16% and the inhibition at 10 µM is 37%.

`CC(C)C[C@@H](C(=O)N1CCN(C(c2ccc(F)cc2)c2ccc(F)cc2)CC1)N(Cc1ccc(OC(C)(C)C)cc1)Cc1ccc(OC(C)(C)C)cc1` [Example 57, (S)-2-[Bis-(4-tert-butoxy-benzyl)-amino]-1-{4-[bis-(4-fluoro-phenyl)-methyl]-piperazin-1-yl}-4-methyl-pentan-1-one] had a melting point of 62 to 67 °C. Also, the IC50 in series [1] was greater than 3000 nM. Besides, the inhibition at 10 µM in series [2] turned out to be 7%.

In the case of `CC(C)C[C@@H](C(=O)N1CCN(C(c2ccc(F)cc2)c2ccc(F)cc2)CC1)N(Cc1ccc(C(C)(C)C)cc1)Cc1ccc(C(C)(C)C)cc1` [Example 59, (S)-2-[Bis-(4-tert-butyl-benzyl)-amino]-1-{-4-[bis-(4-fluoro-phenyl)-methyl]-piperazin-1-yl}-4-methyl-pentan-1-one], the melting point fell in the range of 78 to 86 °C. In addition, the IC50 in series [1] was greater than 3000 nM. Also, in series [2], the inhibition at 1 µM was -5% and the inhibition at 10 µM was 2%.

As to `COc1cc(CN[C@@H](CC(C)C)C(=O)N2CCN(C(c3ccc(F)cc3)c3ccc(F)cc3)CC2)cc(OC)c1OC` [Example 60, (S)-1-{4-[Bis-(4-fluoro-phenyl)-methyl]-piperazin-1-yl}-4-methyl-2-(3,4,5-trimethoxy-benzylamino)-pentan-1-one], the melting point lay in the range of 58 to 62 °C. For the same molecule, in series [1], the IC50 is 220 nM. Further, in series [2], the inhibition at 1 µM is 26% and the inhibition at 10 µM was determined as 95%.

`O=C([C@H](Cc1ccccc1)NC1CCCCC1)N1CCN(C(c2ccc(F)cc2)c2ccc(F)cc2)CC1` [Example 61, (S)-1-{4-[Bis-(4-fluoro-phenyl)-methyl]-piperazin-1-yl}-2-cyclohexylamino-3-phenyl-propan-1-one] displayed a melting point of 60 to 64 °C. In addition, in series [1], the IC50 was 1700 nM. In series [2], the inhibition at 1 µM is 42% and the inhibition at 10 µM turned out to be 102%.
